Results published in US20100204231A1, “AMINO-THIAZOLYL-PYRIMIDINE DERIVATIVES AND THEIR USE FOR THE TREATMENT OF CANCER” (ASTRAZENECA AB, priority 2007, published 2010).

target: T1, C-terminal His6-tagged, recombinant, human JAK2, amino acids 808-end (Homo sapiens, UniProt O60674); test: JAK2 kinase activity assay (Alphascreen); type: biochemical; conditions: 150 pM JAK2 enzyme, 30 μM ATP, 80 nM Tyk2 peptide substrate, 60 minutes, room temperature; read-out: JAK inhibitory activity IC50
T1 construct: human JAK2, amino acids 808-end; His6 (C); purchased Upstate Biotechnology; host or cells: baculovirus in Sf21 cells
Experimental: JAK2 kinase activity was determined by measuring the kinase's ability to phosphorylate synthetic tyrosine residues within a generic polypeptide substrate using an Amplified Luminescent Proximity Assay (Alphascreen) technology (PerkinElmer, 549 Albany Street, Boston, Mass.).
To measure JAK2 kinase activity, a commercially available purified enzyme may be used. The enzyme may be C-terminal His6-tagged, recombinant, human JAK2, amino acids 808-end, (Genbank Accession number NM 004972) expressed by baculovirus in Sf21 cells (Upstate Biotechnology MA). After incubation of the kinase with a biotinylated substrate and adenosine triphosphate (ATP) for 60 minutes at room temperature, the kinase reaction may be stopped by the addition of 30 mM ethylenediaminetetraacetic acid (EDTA). The reaction may be performed in 384 well microtitre plates and the reaction products may be detected with the addition of streptavidin coated Donor Beads and phosphotyrosine-specific antibodies coated Acceptor Beads using the EnVision Multilabel Plate Reader after an overnight incubation at room temperature.

T1 sequence (O60674 808-1132 limits assumed): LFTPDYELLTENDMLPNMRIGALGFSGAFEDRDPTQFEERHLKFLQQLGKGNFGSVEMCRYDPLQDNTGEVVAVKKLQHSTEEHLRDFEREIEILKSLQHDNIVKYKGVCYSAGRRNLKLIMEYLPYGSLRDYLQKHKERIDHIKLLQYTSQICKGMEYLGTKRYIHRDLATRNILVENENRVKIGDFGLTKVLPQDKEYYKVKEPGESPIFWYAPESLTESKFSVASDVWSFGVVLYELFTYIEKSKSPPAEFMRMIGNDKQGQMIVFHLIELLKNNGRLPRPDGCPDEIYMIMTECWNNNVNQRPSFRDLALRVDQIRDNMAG

| SMILES | IC50 [nM] |
| --- | --- |
| Cc1cnc(Nc2nc(N[C@@H](C)c3ccc(F)cc3)ncc2Cl)s1 [Example 1, 5-Chloro-N^2-[(1S)-1-(4-fluorophenyl]ethyl)-N^4-(5-methyl-1,3-thiazol-2-yl)pyrimidine-2,4-diamine] | 6 |
| COC(=O)c1cnc(Nc2nc(N[C@@H](C)c3ccc(F)cc3)ncc2Cl)s1 [Example 2, Methyl 2-[(5-chloro-2-{[(1S)-1-(4-fluorophenyl)ethyl]amino}pyrimidin-4-yl)amino]-1,3-thiazole-5-carboxylate] | 170 |
| Cc1cnc(Nc2nc(N[C@@H](C)c3ncc(F)cn3)nc(N3CCOCC3)c2F)s1 [Example 4, 5-Fluoro-N^2-[(1S)-1-(5-fluoropyrimidin-2-yl)ethyl]-N^4-(5-methyl-1,3-thiazol-2-yl)-6-morpholin-4-ylpyrimidine-2,4-diamine] | 3 |

Results, then the compound that gave them:

| IC50 [nM] | SMILES |
| --- | --- |
| 902 | Cc1cnc(Nc2nc(N[C@@H](C)c3ccc(F)cn3)ncc2Cl)s1 [Example 3, 5-Chloro-N^2-[(1S)-1-(5-fluoropyridin-2-yl)ethyl]-N^4-(5-methyl-1,3-thiazol-2-yl)pyrimidine-2,4-diamine] |
| 3 | Cc1cnc(Nc2cc(N3CCN(C)CC3)nc(N[C@@H](C)c3ccc(F)cn3)n2)s1 [Example 5, N^2-[(S)-1-(5-Fluoro-pyridin-2-yl)-ethyl]-6-(4-methyl-piperazin-1-yl)-N^4-(5-methyl-thiazol-2-yl)-pyrimidine-2,4-diamine] |
| 3 | C[C@H](Nc1nc(Nc2ncc(C#N)s2)cc(N2CCOCC2)n1)c1ccc(F)cn1 [Example 8, 2-[(2-{[(1S)-1-(5-Fluoropyridin-2-yl)ethyl]amino}-6-morpholin-4-ylpyrimidin-4-yl)amino]-1,3-thiazole-5-carbonitrile] |
| 3 | COc1cc(Nc2ncc(C)s2)nc(N[C@@H](C)c2ncc(F)cn2)n1 [Example 10, (S)—N^2-(1-(5-Fluoropyrimidin-2-yl)ethyl)-6-methoxy-N^4-(5-methylthiazol-2-yl)pyrimidine-2,4-diamine] |
